{
  "source": "patent US11433053B2",
  "about": "“LSD1 inhibitor and preparation method and application thereof” (CSPC ZHONGQI PHARMACEUTICAL TECHNOLOGY (SHIJIAZHUANG) CO., …, priority 2017, dated 2022)",
  "key": {"H1417 cells": {"tested_on": "H1417 cells", "assay": "Cell proliferation inhibitory activity on H1417 cells (CellTiter-Glo, 10 days)", "assay_type": "cell-based, human", "details": "Homo sapiens; for pIC50: NCI-H1417, 240 h, H1417 cells, 10 days incubation; for Emax: NCI-H1417, H1417 cells, highest percentage inhibition of cell viability, read-out: Maximum inhibition percentage (%)", "outline": "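H1417 cells in RPMI 1640 with fetal bovine serum were treated with 10-point 3-fold compound dilutions for 10 days. Viability was read by CellTiter-Glo luminescence. IC50 came from a four-parameter fit of percent inhibition, and maximal inhibition was also categorized.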"}, "[1]": {"tested_on": "human small cell lung cancer NCI-H1417 cells subcutaneous xenograft tumor", "assay": "In vivo pharmacodynamic study, NCI-H1417 subcutaneous xenograft tumor CB-17 SCID mouse model", "parameters": "species or system CB-17 SCID mice", "details": "PO, QD", "method": "The purpose of this experiment was to investigate the efficacy of some of the compounds of the present invention in the in vivo xenograft tumor of human small cell lung cancer NCI-H1417 cells in a CB-17 SCID mouse model.\nWeek age and weight: 6-8 weeks old, weight 18-23 g\nHuman small cell lung cancer NCI-H1417 cells were cultured in vitro in a single layer cultured in RPMI-1640 medium (Sigma-aldrich, R0883), supplemented with 10% fetal bovine serum and cultured at 37° C. 5% CO2. When the cell saturation is 80%-90%. The cells are harvested, counted, and inoculated.\n0.2 mL of 10×10^6 (NCI-H1417 cells were subcutaneously inoculated into the right back of each mouse (PBS:Matrigel=1:1). After 21 days of tumor inoculation, group administration was started when the average volume reached 107 mm^3.\nThe experimental solvent was the 10% hydroxypropyl-β-cyclodextrin solution. The preparation method was as follows: 100 g of hydroxypropyl-β-cyclodextrin was weighed into a 1000 mL jar, 800 mL of ultrapure water was added, stirred overnight until completely dissolved, and then made up to 1000 mL. The test substance was dissolved in a solvent, and was prepared into a uniform solution of a certain concentration and stored at 4° C.\nThe experimental indicator is to investigate whether tumor growth is inhibited, delayed or cured. Tumor diameters were measured twice a week using vernier calipers. The tumor volume is calculated as: V=0.5a×b^2, and a and b represent the long and short diameters of the tumor, respectively.\nThe antitumor effect of the compound was evaluated by TG (%). TGI (%), reflecting the tumor growth inhibition rate. TGI (%) calculation: TGI (%)=[1−(the average tumor volume at the end of a treatment group−the average tumor volume at the beginning of the treatment group)/(the average tumor volume at the end of the treatment of the solvent control group−The average tumor volume at the start of treatment in the solvent control group) was ×100%. Solvent control: Vehicle (10% hydroxypropyl-β-cyclodextrin solution)."}, "human LSD1": {"biological_target": "human LSD1 (Homo sapiens (Human), UniProt O60341)", "assay": "Evaluation of enzyme activity: LSD1 fluorescence coupling enzyme assay (HRP/Amplex Red)", "assay_type": "biochemical", "details": "human LSD1, histone H3(1-21)K4me2 peptide 10 μM, 30 min pre-incubation", "outline": "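Human LSD1 preincubated 30 min with compound, then reacted with H3(1-21)K4me2 peptide (10 μM). FAD-dependent H2O2 detected via HRP/Amplex Red fluorescence (Ex/Em 535/590). Ten-dose, 3-fold dilutions in duplicate from 10 μM gave IC50s, binned into activity classes.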"}, "[2]": {"assay": "Pharmacokinetic evaluation in C57BL/6 mice after intravenous and oral administration", "assay_type": "in vivo", "details": "male, mouse, plasma; for Cmax / clearance / half-life / Vd: IV 1 mg/kg; for Cmax: oral 2 mg/kg, route of Cmax not stated, read-out: max concentration Cmax; for clearance: read-out: clearance CL; for half-life: read-out: half-life T1/2 (IV, h) (converted); for Vd: read-out: volumes of distribution Vdss; for bioavailability: PO 2 mg/kg vs IV 1 mg/kg, read-out: bioavailability F (%); for AUC(0-t): PO 2 mg/kg, read-out: the area under the plasma concentration-time curve AUC0-last PO", "method": "Experimental purposes: To test the pharmacokinetics of compounds in C57BL/6 mice\nC57BL/6 mice (male, 7-9 weeks old, Shanghai Slack)\nTest the pharmacokinetics characteristics of rodents after intravenous and oral administration in accordance with standard protocols, and the candidate compound was formulated into a clear solution in the experiment. The mice were administered by intravenous injection and orally once. The intravenous and oral vehicle is a 10% aqueous solution of hydroxypropyl β-cyclodextrin or a physiological saline solution. Six male C57BL/6 mice were employed in this assay, three of them were administered intravenously at a dose of 1 mg/kg, plasma samples were collected at 0 h (before administration) and 0.0833, 0.25, 0.5, 1, 2, 4, 7, 24 h after administration. Another three mice were administered by oral gavage at a dose of 2 mg/kg, plasma samples were collected at 0 h (before administration) and 0.5, 1, 2, 3, 4, 6, 24 h after administration. Collect whole blood samples within 24 hours, centrifuge at 3000 g for 15 minutes, separate the supernatant to obtain a plasma sample, 4 times volume of the internal standard acetonitrile solution was added to precipitate the protein. Centrifuge the supernatant and add an equal volume of water and centrifuge to take the supernatant. LC-MS/MS was used to quantitatively analyze plasma concentrations and calculate pharmacokinetic parameters such as max concentration (Cmax), clearance (CL), half-life (T1/2), volumes of distribution (Vdss), the area under the plasma concentration-time curve (AUC0-last), bioavailability (F), etc."}, "[3]": {"details": "1.5 mg/kg, day 27 after administration"}, "[4]": {"details": "1.5 mg/kg, day 28 after administration"}, "[5]": {"details": "5 mg/kg, day 28 after administration"}},
  "note": "pIC50: −log10 of the molar value.",
  "data": [
    {"smiles": "N[C@H]1CC[C@H](c2nc(C3(CN[C@@H]4C[C@H]4c4ccccc4)CC3)no2)CC1", "note": "[Example 144]", "values": [
      {"measurement": "pIC50", "setting": "H1417 cells", "result": "6.30 to 7.00"},
      {"measurement": "Emax", "setting": "H1417 cells", "result": "90 to 100", "unit": "%"},
      {"measurement": "TGI (%)", "setting": "[1]; [3]", "result": 83.5, "unit": "%"},
      {"measurement": "Tumor volume (mm^3) (Day 27)", "setting": "[1]; [3]", "result": "180 ± 21", "unit": "mm^3"},
      {"measurement": "pIC50", "setting": "human LSD1", "result": "≥ 7.30"},
      {"measurement": "Cmax", "setting": "[2]", "result": 25.3, "unit": "ng/mL"},
      {"measurement": "clearance", "setting": "[2]", "result": 92, "unit": "mL/min/kg"},
      {"measurement": "half-life", "setting": "[2]", "result": 4.5, "unit": "h"},
      {"measurement": "Vd", "setting": "[2]", "result": 28.5, "unit": "L/kg"},
      {"measurement": "bioavailability", "setting": "[2]", "result": 21.5, "unit": "%"},
      {"measurement": "AUC(0-t)", "setting": "[2]", "result": 0.17, "unit": "µM·h"}
    ]},
    {"smiles": "N[C@H]1CC[C@@H](c2nc(C3(CN[C@@H]4C[C@H]4c4ccccc4)CC3)no2)CC1", "note": "[Example 145]", "values": [
      {"measurement": "pIC50", "setting": "H1417 cells", "result": "6.30 to 7.00"},
      {"measurement": "Emax", "setting": "H1417 cells", "result": "70 to 90", "unit": "%"},
      {"measurement": "TGI (%)", "setting": "[1]; [3]", "result": 66.6, "unit": "%"},
      {"measurement": "Tumor volume (mm^3) (Day 27)", "setting": "[1]; [3]", "result": "250 ± 40", "unit": "mm^3"},
      {"measurement": "pIC50", "setting": "human LSD1", "result": "≥ 7.30"},
      {"measurement": "Cmax", "setting": "[2]", "result": 11.9, "unit": "ng/mL"},
      {"measurement": "clearance", "setting": "[2]", "result": 108, "unit": "mL/min/kg"},
      {"measurement": "half-life", "setting": "[2]", "result": 11.7, "unit": "h"},
      {"measurement": "Vd", "setting": "[2]", "result": 81.8, "unit": "L/kg"},
      {"measurement": "bioavailability", "setting": "[2]", "result": 9.1, "unit": "%"},
      {"measurement": "AUC(0-t)", "setting": "[2]", "result": 0.0654, "unit": "µM·h"}
    ]},
    {"smiles": "N[C@H]1CC[C@H](c2cc(C3(CN[C@@H]4C[C@H]4c4ccccc4)CC3)no2)CC1", "note": "[Example 241]", "values": [
      {"measurement": "pIC50", "setting": "H1417 cells", "result": "≥ 7.00"},
      {"measurement": "Emax", "setting": "H1417 cells", "result": "70 to 90", "unit": "%"},
      {"measurement": "TGI (%)", "setting": "[1]; [4]", "result": 66, "unit": "%"},
      {"measurement": "Tumor volume (mm^3) (Day 28)", "setting": "[1]; [4]", "result": "251 ± 35", "unit": "mm^3"},
      {"measurement": "TGI (%)", "setting": "[1]; [5]", "result": 110, "unit": "%"},
      {"measurement": "Tumor volume (mm^3) (Day 28)", "setting": "[1]; [5]", "result": "61 ± 10", "unit": "mm^3"},
      {"measurement": "pIC50", "setting": "human LSD1", "result": "≥ 7.30"},
      {"measurement": "Cmax", "setting": "[2]", "result": 49.5, "unit": "ng/mL"},
      {"measurement": "clearance", "setting": "[2]", "result": 104, "unit": "mL/min/kg"},
      {"measurement": "half-life", "setting": "[2]", "result": 2.4, "unit": "h"},
      {"measurement": "Vd", "setting": "[2]", "result": 20.9, "unit": "L/kg"},
      {"measurement": "bioavailability", "setting": "[2]", "result": 36.7, "unit": "%"},
      {"measurement": "AUC(0-t)", "setting": "[2]", "result": 0.271, "unit": "µM·h"}
    ]}
  ]
}
